From patent publication US20180040391A1, “GAS-INSULATED MEDIUM-OR HIGH-VOLTAGE ELECTRICAL APPARATUS INCLUDING HEPTAFLUOROISOBUTYRONITRILE AND TETRAFLUOROMETHANE” (General Electric Technology GmbH, priority 2015, published 2018)
Like-named read-outs stand apart in the source and are kept apart here.

Columns and labels:
[1] = fluids of WO 2012/080246; cited from earlier work
[2] = saturated vapor pressure of i-C3F7CN and corresponding pressure raised to 20° C.; assay type: physicochemical
Description: However, since equipment is usually filled with gas at ambient temperature, the pressure to which reference is made in order to fill the equipment with heptafluoroisobutyronitrile is the pressure PTfill that corresponds, at the filling temperature, e.g. 20° C., to the PVS presented by said compound at the lowest utilization temperature Tmin of said equipment. This correspondence is given, for each compound, by the formula: […]
with Tmin expressed in kelvins.
By way of example, the Table II below gives the saturated vapor pressures, referenced PVSi-C3F7CN and expressed in hectopascals, presented by heptafluoroisobutyronitrile at temperatures of 0° C., −5° C., −10° C., −15° C., −20° C., −25° C., −30° C., −35° C., and −40° C., as well as the pressures, referenced P and expressed in hectopascals, which correspond to those saturated vapor pressures raised to 20° C.

[3] = boiling point (ASTM D1120-94); assay type: physicochemical; conditions: at 1013 hPa
Description: (i) a boiling point of −4.7° C. at 1013 hectopascals (hPa) (boiling point measured in accordance with ASTM D1120-94 “Standard Test Method of Boiling Point of Engine Coolants”);
(i′) a boiling point of −127.8° C. at 1013 hPa (boiling point measured in accordance with ASTM D1120-94);

Row | SMILES | boiling point [1] [°C] | PVSi-C3F7CN saturated vapor pressure ([2]; 0° C.) [hPa] | Pi-C3F7CN pressure corresponding to the saturated vapor pressure raised to 20° C. ([2]; PVS at 0° C. raised to 20° C.) [hPa] | Pi-C3F7CN pressure corresponding to the saturated vapor pressure raised to 20° C. ([2]; PVS at −5° C. raised to 20° C.) [hPa] | Pi-C3F7CN pressure corresponding to the saturated vapor pressure raised to 20° C. ([2]; PVS at −10° C. raised to 20° C.) [hPa] | Pi-C3F7CN pressure corresponding to the saturated vapor pressure raised to 20° C. ([2]; PVS at −15° C. raised to 20° C.) [hPa] | Pi-C3F7CN pressure corresponding to the saturated vapor pressure raised to 20° C. ([2]; PVS at −20° C. raised to 20° C.) [hPa] | Pi-C3F7CN pressure corresponding to the saturated vapor pressure raised to 20° C. ([2]; PVS at −25° C. raised to 20° C.) [hPa] | Pi-C3F7CN pressure corresponding to the saturated vapor pressure raised to 20° C. ([2]; PVS at −30° C. raised to 20° C.) [hPa] | Pi-C3F7CN pressure corresponding to the saturated vapor pressure raised to 20° C. ([2]; PVS at −35° C. raised to 20° C.) [hPa] | Pi-C3F7CN pressure corresponding to the saturated vapor pressure raised to 20° C. ([2]; PVS at −40° C. raised to 20° C.) [hPa] | PVSi-C3F7CN saturated vapor pressure ([2]; −5° C.) [hPa] | PVSi-C3F7CN saturated vapor pressure ([2]; −10° C.) [hPa] | PVSi-C3F7CN saturated vapor pressure ([2]; −15° C.) [hPa] | PVSi-C3F7CN saturated vapor pressure ([2]; −20° C.) [hPa] | PVSi-C3F7CN saturated vapor pressure ([2]; −25° C.) [hPa] | PVSi-C3F7CN saturated vapor pressure ([2]; −30° C.) [hPa] | PVSi-C3F7CN saturated vapor pressure ([2]; −35° C.) [hPa] | PVSi-C3F7CN saturated vapor pressure ([2]; −40° C.) [hPa] | boiling point [3] [°C]
1 | O=C(C(F)(F)F)C(F)(C(F)(F)F)C(F)(F)F [fluoroketone C5] | 23 |  |  |  |  |  |  |  |  |  |  |  |  |  |  |  |  |  |  | 
2 | O=C(C(F)(F)C(F)(F)F)C(F)(C(F)(F)F)C(F)(F)F [fluoroketone C6] | 49 |  |  |  |  |  |  |  |  |  |  |  |  |  |  |  |  |  |  | 
3 | N#CC(F)(C(F)(F)F)C(F)(F)F [i-C3F7CN, 2,3,3,3-tetrafluoro-2-trifluoromethyl propanenitrile] |  | 1177 | 1264 | 1058 | 877 | 720 | 583 | 466 | 368 | 286 | 218 | 968 | 788 | 634 | 504 | 395 | 305 | 232 | 173 | −4.7
